From PMC6764124 (Journal of Neuroinflammation, 2019)
Like-named read-outs stand apart in the source and are kept apart here.

Legend:
latent HIV in T cells = tested on: latent HIV in T cells; set-up: method as in PMID 29267399; settings: cited from earlier work
HIVE mouse model = tested on: HIVE mouse model; set-up: method as in PMID 26851503; settings: cited from earlier work
HIV-infected individuals = tested on: HIV-infected individuals; set-up: method as in earlier work; settings: cited from earlier work
J-lat T cells = assay: TNF-α-induced reactivation of latent HIV-1 in J-lat T cells; format: cell-based, human
[1] = tested on: latent HIV-1 in primary human Mϕ; assay: PMA-induced reactivation of HIV-1 from latent primary human macrophages (p24 ELISA); format: cell-based
Procedure: Primary human Mϕ were prepared as described above and infected with an MOI of 0.5 with HIV-1BaL for 4 h prior to removal of virus and culture in virus-free medium. Supernatants were collected every 5 days, and extracellular p24 production was monitored (p24 ELISA, ABL, Inc.). Fresh culture medium was added to cultures every 5 days as supernatants were collected for p24 analysis. […] After 24 h post-reactivation, cellular supernatants were collected, and extracellular reactivated p24 was quantified (p24 ELISA). Percent inhibition of reactivation was calculated versus no drug controls, and EC50/90 were calculated as previously described.

[2] = set-up: method as in Olumiant.com; settings: at concentrations more than 2 logs above concentrations in the murine model; ref Olumiant.com; cited from earlier work
[3] = Pharmacokinetics of baricitinib in mouse plasma and brain after single SC dose (LC-MS/MS); format: in vivo, SCID mice; settings: for Cmax: SCID mice
Procedure: One, 4, 8, and 24 h after drug inoculation, mice were sacrificed and whole blood was collected immediately followed by cardiac perfusion with PBS prior to the extraction of brain tissues. After brain extraction, posterior fossa (the cerebellum and brainstem) was taken, snap frozen, and stored at − 70 °C. Posterior fossa from each mouse was then weighed and homogenized in a mixed water and methanol (2:1) solution. The homogenates were then centrifuged, and the pellet discarded. The supernatant was dried by evaporation using nitrogen gas, resuspended in 1 mL water, and put through Isolute-XL C18 columns (Biotage, Uppsala, Sweden). Drug was then eluted with acetonitrile and subsequently dried. […] Chromatographic separation was performed by Ultimate 3000 LC system (Thermo Scientific, MA, USA), on a Kinetex XB-C18 column (50 × 2.1 mm) with a 2.6-μm particle size (Phenomenex, CA, USA). The mobile phase A consisted of 0.1% formic acid in water, and the mobile phase B consisted of methanol. Isocratic elution was used for the separation with mobile phase A:B at 25:75 (v/v). The column was maintained at ambient temperature. The flow rate was maintained at 250 μL/min, and a 20-μL injection was used. An API5000 triple quadrupole mass spectrometer (ABsciex, MA, USA) was used for detection, with electrospray ionization in positive ion mode. The mass spectrum parameters for the analytes were set as follows: ion spray voltage, 5500 V; curtain gas, 25 psi; ion source gas 1, 40 psi; ion source gas 2, 40 psi; source temperature, 500 °C; and collision gas, 5 psi. […] Analyst software version 1.5.2 was used to operate the mass spectrometer and to perform data analysis. […] The calibration curves had r^2 value greater than 0.99.

[4] = tested on: HAND mice (IC injection of HIV-infected human MDM); assay: Brain HAND markers by flow cytometry in SCID mouse HAND model; format: in vivo; settings: day 14, versus untreated HAND mice
Procedure: Four-week-old B6.CB17-Prkdc^scid/SzJ (SCID) male mice were injected IC with 30 μL of HIV-infected MDMs suspended in 0.9% saline, directly into the frontal lobe of the right hemisphere. The injection was done free-handed (without a stereotactic device). The injection is performed with a syringe that allows a very slow rate of infusion. We have verified the injection site with a histological staining in our previously published works, which is in the basal ganglia as described in Koneru et al.. Injections were performed on day 0 (D0). Treatments (baricitinib or saline) were given subcutaneously (SC).
Fourteen days after IC MDM inoculation, mice were sacrificed and brain samples were harvested and placed in a tissue preservative solution (Miltenyi, Bergisch Gladbach, Germany). Samples were then dissociated using a commercial kit and a gentleMacs dissociator (Miltenyi) into single cell suspensions. Cells were then washed in 2% BSA/PBS buffer and incubated with the following: (1) anti-murine CD45-Vioblue (1:10 dilution) and anti-murine MHCII primary antibody (1:500) followed by APC conjugated secondary antibody (1:500 dilution), or isotype-only controls; (2) GFAP-FITC (1:750 dilution 1′ antibody and 1:1000 2′ 488 (FITC) antibody (Abcam, Cambridge, UK); or (3) human (non-murine cross-reactive) CD163-APC (Miltenyi Biotec) for 30 min (Sigma Aldrich, St. Louis, MO). Cells were washed twice in 2% BSA/PBS and fixed with 2% paraformaldehyde for 15 min. Cells were washed twice in 2% BSA/PBS and analyzed for double positive cells by flow cytometry (Macs Quant analyzer and MacsQuantify software, Miltenyi Biotec).
Total events were collected using forward scatter (FSC) and side scatter […] followed by doublet discrimination (FSC-area versus FSC-height) using a MacsQuant flow cytometer (Miltenyi). No primary FSC/SSC gate was established, to allow all events to be collected within the heterogeneous size and granularity of the brain cells. GFAP^+ events were collected with gates and voltages established using 2′ antibody only. GFAP^+ low granularity gate was established with events up to one-log shift from negative population, and GFAP^+ high granularity (activated astrocytes) was established with events greater than two-log shift from negative population. MHCII and CD45 (mouse mononuclear phagocytes) expression were quantified based on quadrant gating for MHCII^+/CD45^−, CD45^+MHCII^−, MHCII^+/CD45^+, or MHCII^−/CD45^−. CD163^+ events (human Mϕ) were collected with gates established from isotype-only controls. Percentages and total events were collected.

[5] = tested on: HIV replication in primary PBM cells; assay: Antiviral activity in activated peripheral blood mononuclear (PBM) cells; format: cell-based, HIV-1; settings: for EC90: read-out: EC90 inhibition of HIV replication in PBM cells
[6] = tested on: non-dividing p24+ primary CD4+ T cells; assay: Frequency of non-dividing p24+ latent primary CD4+ T cells in vitro; format: cell-based, human
[7] = tested on: HLA-DR and CD163 in primary human Mϕ; assay: HIV-induced upregulation of activation markers HLA-DR and CD163 in primary human macrophages; format: cell-based
Text: Mϕ and monocytes were isolated as previously described. […] Cells were maintained for 6 days before viral quantification (p24-ELISA). For in vitro activation marker studies, CD14^+ monocytes or fully differentiated (CD14^−/CD11b^+) Mϕ were used. […] The method used to differentiate Mϕ (CD14^−/CD11b^+) has been validated by our group to ensure that these cells are no longer expressing monocyte marker CD14 and are mature Mϕ (CD11b expression). […] Miltenyi Biotec, San Diego, CA). Mϕ and monocytes were treated with various concentrations of drug for 6 days and stained with Near-IR live/dead dye and quantified by FACS. Antiviral potency was calculated as previously described. […] Cells were harvested and stained for CD14^+ (FITC)/CD16^+ (APC) to quantify HIV-induced activation or impact of drugs on block of these markers.

HIV-1baL = assay: Antiviral activity in primary human macrophages (p24 ELISA); format: cell-based; settings: for EC90: read-out: EC90 inhibition of HIV replication in macrophages
Text: Mϕ and monocytes were isolated as previously described. […] Cells were maintained for 6 days before viral quantification (p24-ELISA). For in vitro activation marker studies, CD14^+ monocytes or fully differentiated (CD14^−/CD11b^+) Mϕ were used. Monocytes were used as a model to mimic HIV-induced activation that transpires in the periphery, wherein presence or internalization of HIV-1 in monocytes confers activation (CD14^+/CD16^+) and subsequent trafficking of “Trojan horse” monocytes across and within the BBB [11, 12]. The method used to differentiate Mϕ (CD14^−/CD11b^+) has been validated by our group to ensure that these cells are no longer expressing monocyte marker CD14 and are mature Mϕ (CD11b expression). Mϕ or monocytes were treated with various concentrations of drug prior to infection (HIV-1baL) and maintained for 3 days before quantification of HLA-DR, CD163 (Mϕ), or CD14/CD16 (monocytes; Miltenyi Biotec, San Diego, CA). Mϕ and monocytes were treated with various concentrations of drug for 6 days and stained with Near-IR live/dead dye and quantified by FACS. Antiviral potency was calculated as previously described.

In the case of `C[C@@H]1CCN(C(=O)CC#N)C[C@@H]1N(C)c1ncnc2[nH]ccc12` [tofacitinib], the “Reactivation of latent HIV from T cells” value (latent HIV in T cells) is listed as “block the reactivation”.

In the case of `N#CC[C@H](C1CCCC1)n1cc(-c2ncnc3[nH]ccc23)cn1` [ruxolitinib], the “Effect on HIVE in mouse model” value (HIVE mouse model) is given as “ameliorates HIVE”, the “Reactivation of latent HIV from T cells” value (latent HIV in T cells) is given as “block the reactivation” and the Safety and tolerability (HIV-infected individuals; HIV-infected, cART-suppressed individuals, versus control cART group) is given as “safe and well-tolerated”. For the same molecule, the “sCD14 (clinical marker for monocyte activation)” value (HIV-infected individuals; ruxolitinib arm versus cART group) was “significant reduction”.

In the case of `CCS(=O)(=O)N1CC(CC#N)(n2cc(-c3ncnc4[nH]ccc34)cn2)C1` [Baricitinib], the EC90 (J-lat T cells; Homo sapiens, T-cell, read-out: EC90 inhibition of TNF-α induced reactivation) is given as 1100 ± 300 nM, the EC90 ([1]; Macrophage, latent primary human macrophages, 50 ng/mL PMA, 24 h, read-out: EC90 inhibition of PMA induced reactivation) is given as 700 ± 100 nM and the Toxicity [2] is given as “not toxic”. The “Detection in plasma and brain samples” value ([3]; 1, 4, 8, 24 h after 10 or 50 mg/kg SC, limit of detection 5.5 ng/mL) was “detected in all plasma and brain samples except for 24 h plasma samples at 10 mg/kg”, the Blood-brain barrier penetration ([3]; 10 and 50 mg/kg SC, mouse) was “can penetrate mouse BBB” and the Cmax ([3]; mouse, brain (posterior fossa: cerebellum and brainstem), 10 mg/kg single SC, read-out: Cmax in the brain) was ~40 ng/g. The Cmax ([3]; mouse, brain (posterior fossa: cerebellum and brainstem), 50 mg/kg single SC, read-out: Cmax in the brain) was ~75 ng/g, the Cmax ([3]; mouse, plasma, 10 mg/kg single SC, read-out: Cmax in plasma) was ~200 ng/mL and the Cmax ([3]; mouse, plasma, 50 mg/kg single SC, read-out: Cmax in plasma) was ~1400 ng/mL. The “Activated astrocytes (GFAP+; astrogliosis) in brain” value ([4]; 10 mg/kg qd SC) was “reduced”, the “Percentage of activated mouse mononuclear phagocytes (MHCII/CD45 double positive cells) in brain” value ([4]; 10 mg/kg qd SC) was “significantly reduced” and the “Activated p24+ human Mϕ in brain” value ([4]; 50 mg/kg qd SC (high dose)) was “significantly reduced”. For the same molecule, the “Activated astrocytes (GFAP+; astrogliosis) in brain” value ([4]; 50 mg/kg qd SC) was “reduced”, the “Percentage of activated mouse mononuclear phagocytes (MHCII/CD45 double positive cells) in brain” value ([4]; 50 mg/kg qd SC) was “significantly reduced” and the EC90 ([5]; Human immunodeficiency virus 1, PBMC) was 400 ± 70 nM. The EC90 ([6]; Homo sapiens, non-dividing p24+ primary CD4+ T cells, read-out: EC90 reduction of non dividing latent CD4 T cells) was 700 ± 80 nM, the EC90 ([7]; Macrophage, primary human macrophages, read-out: EC90 inhibition of HIV-induced HLA-DR and CD163) was 1200 nM and the EC90 (HIV-1baL; Human immunodeficiency virus 1, Macrophage) was 2100 ± 300 nM.

With `Nc1ccn([C@@H]2CS[C@H](CO)O2)c(=O)n1` [3TC] the “Effect on TNF-a induced reactivation (dose response, Figure S1 C)” value (J-lat T cells) was “did not have any effect”, the “Effect on PMA induced reactivation (dose response, Figure S1 D)” value ([1]; macrophages) was “did not have any effect” and the EC50 ([5]; primary activated PBM cells, read-out: EC50 inhibition of HIV replication in PBM cells) was 10 nM. The EC90 ([5]; primary activated PBM cells) was 900 nM, the “Effect on frequency of non-dividing latent CD4 T cells (dose response, Figure S1 E)” value [6] was “did not have any effect” and the “Effect on HIV-induced activation markers HLA-DR/CD163 double positive macrophages (dose response, Figure S1 F)” value [7] was “did not have any effect”. For the same molecule, the EC50 (HIV-1baL; primary human Mϕ, read-out: EC50 inhibition of HIV replication in macrophages) was 100 nM and the EC90 (HIV-1baL; primary human Mϕ) was 1200 nM.
